What was measured:
human recombinant Btk = human recombinant Btk (Homo sapiens (Human), UniProt Q06187); assay: Human Recombinant Btk enzyme assay; type: biochemical; details: read-out: Btk IC50 value
[1] = test system: CD69 expression on B cells in human whole blood; assay: Whole blood assay of BCR-stimulated CD69 expression on B cells; type: cell-based; details: Homo sapiens, B-cell, BCR-stimulated, read-out: CD69 IC50 values
Jak2 tyrosine kinase = Jak2 tyrosine kinase (Homo sapiens (Human), UniProt O60674); assay: Jak2 tyrosine kinase assay; type: biochemical
Sequence of Jak2 tyrosine kinase (O60674 whole entry): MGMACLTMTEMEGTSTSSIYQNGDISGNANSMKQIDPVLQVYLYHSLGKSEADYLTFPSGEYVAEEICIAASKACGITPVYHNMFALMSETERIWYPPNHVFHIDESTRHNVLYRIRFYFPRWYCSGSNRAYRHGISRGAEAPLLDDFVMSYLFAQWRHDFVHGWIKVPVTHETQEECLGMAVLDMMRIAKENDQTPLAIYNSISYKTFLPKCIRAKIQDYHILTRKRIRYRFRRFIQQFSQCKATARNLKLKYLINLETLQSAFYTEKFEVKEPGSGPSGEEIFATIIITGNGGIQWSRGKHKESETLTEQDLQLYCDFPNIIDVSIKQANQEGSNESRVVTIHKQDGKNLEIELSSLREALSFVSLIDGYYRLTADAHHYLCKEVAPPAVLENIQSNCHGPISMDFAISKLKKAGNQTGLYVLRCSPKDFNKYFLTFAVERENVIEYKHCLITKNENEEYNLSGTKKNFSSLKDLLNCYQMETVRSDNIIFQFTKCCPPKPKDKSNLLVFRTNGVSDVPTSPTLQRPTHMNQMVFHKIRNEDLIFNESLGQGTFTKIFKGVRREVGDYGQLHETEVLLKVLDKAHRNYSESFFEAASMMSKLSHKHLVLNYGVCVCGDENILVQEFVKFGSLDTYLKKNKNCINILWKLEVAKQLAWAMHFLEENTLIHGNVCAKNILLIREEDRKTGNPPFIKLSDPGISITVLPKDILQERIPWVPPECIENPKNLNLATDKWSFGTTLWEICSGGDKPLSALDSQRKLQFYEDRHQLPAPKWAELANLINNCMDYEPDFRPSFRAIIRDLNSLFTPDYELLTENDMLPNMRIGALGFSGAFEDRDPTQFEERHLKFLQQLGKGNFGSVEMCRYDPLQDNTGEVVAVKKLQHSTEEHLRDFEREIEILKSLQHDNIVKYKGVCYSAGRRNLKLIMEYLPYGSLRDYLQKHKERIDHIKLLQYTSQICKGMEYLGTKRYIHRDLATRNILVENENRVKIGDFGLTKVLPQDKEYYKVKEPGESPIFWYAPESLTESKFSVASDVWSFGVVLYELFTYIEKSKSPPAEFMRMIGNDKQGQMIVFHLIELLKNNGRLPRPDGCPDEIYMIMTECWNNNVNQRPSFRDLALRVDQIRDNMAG

Sequence of human recombinant Btk (Q06187 whole entry): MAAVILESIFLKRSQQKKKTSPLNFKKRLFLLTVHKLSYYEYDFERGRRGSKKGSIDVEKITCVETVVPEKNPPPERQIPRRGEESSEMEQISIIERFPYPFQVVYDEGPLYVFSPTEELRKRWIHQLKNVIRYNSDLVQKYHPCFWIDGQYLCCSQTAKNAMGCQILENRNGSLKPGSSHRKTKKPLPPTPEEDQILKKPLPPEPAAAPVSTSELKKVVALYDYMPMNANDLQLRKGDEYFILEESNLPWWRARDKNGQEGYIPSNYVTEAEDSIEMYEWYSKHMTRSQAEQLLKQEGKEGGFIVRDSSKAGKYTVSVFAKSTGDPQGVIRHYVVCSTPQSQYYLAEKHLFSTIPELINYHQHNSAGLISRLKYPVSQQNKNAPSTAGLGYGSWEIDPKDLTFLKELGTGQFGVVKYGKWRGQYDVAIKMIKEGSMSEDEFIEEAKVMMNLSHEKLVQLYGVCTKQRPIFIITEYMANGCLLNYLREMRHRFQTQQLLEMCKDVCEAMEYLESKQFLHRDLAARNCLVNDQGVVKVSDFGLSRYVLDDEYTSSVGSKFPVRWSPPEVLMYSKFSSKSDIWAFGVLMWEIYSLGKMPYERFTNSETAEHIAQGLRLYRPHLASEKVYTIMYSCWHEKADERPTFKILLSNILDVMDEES

IC50 (human recombinant Btk): 0.85 nM | IC50 [1]: 98 nM | IC50 (Jak2 tyrosine kinase): 370 nM | Ratio of Jak2/Btk IC50 values (Jak2 tyrosine kinase; selectivity of Btk over Jak2): 440
Compound: Cc1c(-c2c(Cl)cc(C(N)=O)c3[nH]c4cc(C(C)(C)O)ccc4c23)cccc1-n1c(=O)cc2c(F)cccn2c1=O [Example 34, 3-Chloro-4-(3-(5-fluoro-1,3-dioxo-1H-pyrido[1,2-c]pyrimidin-2(3H)-yl)-2-methylphenyl)-7-(2-hydroxypropan-2-yl)-9H-carbazole-1-carboxamide]

From patent publication US9334290B2, “Substituted tetrahydrocarbazole and carbazole carboxamide compounds” (Bristol-Myers Squibb Company, priority 2013, dated 2016)
